Here are results for seven compounds from PubChem BioAssay (NCI).

Test systems include RPMI-8226 leukemia; SW-620 colon; OVCAR-4 ovarian; MDA-N; OVCAR-3 ovarian; HCC-2998 colon; TK-10 renal; SNB-75 CNS; OVCAR-5 ovarian; HCT-116 colon; UACC-257 melanoma; SF-268 CNS; CCRF-CEM leukemia; SK-MEL-5 melanoma; SK-OV-3 ovarian; HOP-62 NSCLC; A549 NSCLC; MALME-3M melanoma; A498 renal; MOLT-4 leukemia.
Assay in all cases: NCI tumour cell line growth inhibition, 48 h

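How tested: cells in 96-well plates exposed to compound for 48 hours at five concentrations. Definition used: TGI = concentration required for complete inhibition of growth.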 A value given as a limit tells only on which side of the number the result lay.

On to `Cc1cccc(C)c1NC(=S)/N=C/C1=C(O)c2ccccc2C1=O`, for which the TGI in the experiment with RPMI-8226 leukemia was 31 µM; in the experiment with SW-620 colon, more than 100 µM; with OVCAR-4 ovarian, more than 65.4 µM; with MDA-N it was more than 95.5 µM; with OVCAR-3 ovarian, more than 100 µM; in the experiment on HCC-2998 colon it was more than 100 µM. In addition, the TGI was more than 81.2 µM with TK-10 renal; 51.4 µM with SNB-75 CNS; more than 100 µM in the experiment on OVCAR-5 ovarian; more than 59.8 µM in the experiment with HCT-116 colon; more than 88.5 µM in the experiment with UACC-257 melanoma; more than 100 µM in the experiment on SF-268 CNS. Besides, the TGI with CCRF-CEM leukemia was more than 100 µM; in the experiment with SK-MEL-5 melanoma, 29.3 µM; with SK-OV-3 ovarian it was more than 29.3 µM; in the experiment with HOP-62 NSCLC, more than 100 µM; in the experiment with A549 NSCLC it was more than 100 µM.
Regarding `C(/COc1cccnc1)=N\NC1=NCCN1`, the TGI in the experiment with MALME-3M melanoma, in the experiment on RPMI-8226 leukemia, with SW-620 colon, in the experiment on OVCAR-4 ovarian, with OVCAR-3 ovarian and in the experiment on HCC-2998 colon was more than 100 µM throughout. Further, the TGI in the experiment on TK-10 renal, with SNB-75 CNS, in the experiment on OVCAR-5 ovarian, in the experiment on HCT-116 colon, with UACC-257 melanoma and in the experiment with SF-268 CNS was more than 100 µM throughout. The TGI with CCRF-CEM leukemia, with SK-MEL-5 melanoma, with A498 renal, in the experiment with SK-OV-3 ovarian, in the experiment on MOLT-4 leukemia and in the experiment on HOP-62 NSCLC was more than 100 µM throughout. In addition, in the experiment on A549 NSCLC, the TGI is more than 100 µM.
Consider `CN/N=C(\C)CC(=O)Nc1cccc(Cl)c1C`, for which the TGI in the experiment on MALME-3M melanoma, in the experiment with RPMI-8226 leukemia, with OVCAR-4 ovarian, in the experiment with OVCAR-3 ovarian, in the experiment with HCC-2998 colon and with TK-10 renal was more than 100 µM in each case. In addition, the TGI with SNB-75 CNS, in the experiment with OVCAR-5 ovarian, with HCT-116 colon, with UACC-257 melanoma, with SF-268 CNS and in the experiment with CCRF-CEM leukemia was more than 100 µM each time. For the same compound, the TGI in the experiment on SK-MEL-5 melanoma, in the experiment with A498 renal, in the experiment on SK-OV-3 ovarian, with MOLT-4 leukemia, in the experiment on HOP-62 NSCLC and with A549 NSCLC was more than 100 µM each time.
In the case of `COC(=O)C(C(=O)C(=O)Nc1ccccc1OC)c1csc(-n2nc(-c3ccccc3)cc2-c2ccccc2)n1` (stereo unspecified), the TGI with MALME-3M melanoma, in the experiment on RPMI-8226 leukemia, with SW-620 colon, in the experiment on OVCAR-4 ovarian, in the experiment on OVCAR-3 ovarian and in the experiment with HCC-2998 colon was more than 100 µM in each case. In addition, the TGI was more than 100 µM with TK-10 renal; 92.7 µM in the experiment on SNB-75 CNS; more than 100 µM in the experiment on OVCAR-5 ovarian; more than 100 µM in the experiment with HCT-116 colon; more than 100 µM in the experiment with UACC-257 melanoma; more than 100 µM in the experiment with SF-268 CNS. For the same compound, the TGI in the experiment with CCRF-CEM leukemia, in the experiment on A498 renal, with SK-OV-3 ovarian, with MOLT-4 leukemia, in the experiment with HOP-62 NSCLC and in the experiment on A549 NSCLC was more than 100 µM throughout.
Regarding `Nc1nc(Cl)c2ncn(Cc3ccccc3CCl)c2n1`, the TGI in the experiment on MALME-3M melanoma is 10.2 µM; with RPMI-8226 leukemia, more than 100 µM; in the experiment on SW-620 colon, 11.8 µM; in the experiment with OVCAR-4 ovarian, 6.47 µM; in the experiment with OVCAR-3 ovarian it was 10.9 µM; in the experiment with HCC-2998 colon, 6.57 µM. The TGI in the experiment on TK-10 renal is 36.7 µM; with SNB-75 CNS, 23.8 µM; in the experiment on OVCAR-5 ovarian, 39.8 µM; in the experiment with HCT-116 colon, more than 100 µM; in the experiment on UACC-257 melanoma it was 38.2 µM; in the experiment on SF-268 CNS it was 14.5 µM. In addition, the TGI in the experiment on CCRF-CEM leukemia was more than 100 µM; in the experiment with SK-MEL-5 melanoma it was 26.5 µM; in the experiment with A498 renal, 44.3 µM; with SK-OV-3 ovarian, 52.1 µM; in the experiment with MOLT-4 leukemia it was more than 100 µM; in the experiment on HOP-62 NSCLC, 62.3 µM. The same compound had a TGI in the experiment on A549 NSCLC of 53.1 µM.
As for `COC(CNC(=O)C(C)NC(=O)C(C)NC(=O)c1ccccc1)OC` (stereo unspecified), the TGI with MALME-3M melanoma, in the experiment with RPMI-8226 leukemia, with SW-620 colon, in the experiment on OVCAR-4 ovarian, in the experiment on MDA-N and in the experiment on TK-10 renal was more than 100 µM in each case. The TGI in the experiment on SNB-75 CNS, in the experiment with OVCAR-5 ovarian, in the experiment with HCT-116 colon, in the experiment on UACC-257 melanoma, in the experiment on SF-268 CNS and in the experiment with CCRF-CEM leukemia was more than 100 µM each time. Also, the TGI with SK-MEL-5 melanoma, in the experiment with SK-OV-3 ovarian, in the experiment on MOLT-4 leukemia and in the experiment on A549 NSCLC was more than 100 µM throughout.
With `CCC12C=CCN3CC[C@]4(C(=C(C(=O)OC)[C@@H]1Nc1ccn(C5OC(COC(C)=O)C(OC(C)=O)C5OC(C)=O)c(=O)n1)Nc1ccccc14)C32` (stereo partly specified), the TGI in the experiment with MALME-3M melanoma came to 9.74 µM; in the experiment with RPMI-8226 leukemia, 14.7 µM; in the experiment with SW-620 colon it was 9.41 µM; in the experiment on OVCAR-4 ovarian it was 3.57 µM; in the experiment on OVCAR-3 ovarian, 7.8 µM; in the experiment on HCC-2998 colon, 7.73 µM. Moreover, the TGI stood at 10.1 µM in the experiment on TK-10 renal; 7.63 µM in the experiment with SNB-75 CNS; 3.6 µM in the experiment on OVCAR-5 ovarian; 7.37 µM in the experiment with HCT-116 colon; 3.62 µM in the experiment on UACC-257 melanoma; 10.9 µM in the experiment with SF-268 CNS. Moreover, the TGI with CCRF-CEM leukemia was 13.2 µM; in the experiment on SK-MEL-5 melanoma it was 8.1 µM; in the experiment on A498 renal, 10.7 µM; with SK-OV-3 ovarian, 9.45 µM; in the experiment on MOLT-4 leukemia, 23.5 µM; in the experiment on HOP-62 NSCLC, 8.83 µM. In the experiment on A549 NSCLC, the TGI is 15.1 µM.
